{
  "source": "patent US20150140059A1",
  "about": "(The Regents of the University of California, priority 2012, published 2015)",
  "key": {"[1]": {"system": "C3H10T1/2 embryonic fibroblast cells", "assay_type": "cell-based, mouse", "conditions": "C3H cells, 4 days; for EC50: whole cell extracts, read-out: EC50 for inducing ALP activity", "method": "(§1) For direct comparison to Oxy133, C3H cells were also treated with Oxy34 and Oxy49 (FIG. 2A). After 4 days, alkaline phosphatase (ALP) activity was measured in whole cell extracts.\n(§2) Cells at confluence were treated with vehicle, Oxy133 or Oxy149. After 4 days, alkaline phosphatase (ALP) activity was measured in whole cell extracts.\n(§3) Alkaline phosphatase (ALP) activity assay on whole cell extracts (13,14), and von Kossa staining of cell monolayers for mineralization (16) were performed as previously described."}, "[2]": {"system": "M2-10B4 bone marrow stromal cells", "assay": "Alkaline phosphatase (ALP) activity assay in M2-10B4 cells", "assay_type": "cell-based, mouse", "method": "as §1, §2, §3"}, "Lewis rats [3]": {"system": "Lewis rats", "conditions": "prior studies (ref. 15); cited from earlier work"}, "[4]": {"system": "primary human mesenchymal stem cells", "assay": "Osteogenic gene expression by quantitative RT-PCR in primary human MSC", "assay_type": "cell-based", "conditions": "5 μM", "description": "(La Jolla, Calif.). […] Human primers sequences were: […] ID NO:1) and 3'-[NT] (SEQ ID NO:2), BSP 5'-[NT] ID NO:3) and 3'-[NT] ID NO:4), […] ID NO:5) and 3'-[NT]"}, "[5]": {"system": "8X-Gli luciferase reporter (Hedgehog pathway)", "assay_type": "cell-based, mouse", "conditions": "C3H cells, 48 hours", "method": "(§4) After 4 days ALP activity, and after 7 days the expression of osteogenic genes ALP, BSP, and OSX was measured by quantitative real-time PCR (p<0.001 for control vs. Oxy133, and for Oxy133 vs. Oxy133+Cyc for ALP activity and for the expression of all genes shown). […] (p<0.001 for control vs. Oxy133 at 100 nM, 250 nM, and 1 μM Oxy133). (FIG. 4C) The amount of YFP-Smo captured by 20S beads or control beads was compared in samples containing either no competitor or 50 μM of a free competitor sterol (20S, Oxy133 or Oxy16). The YFP-Smo captured by the beads was measured by Western blot (top) and plotted (bottom) relative to the amount captured in the binding reaction with no competitor.\nCells at 70% confluence in 24-well plates were transiently transfected with Gli-dependent firefly luciferase and Renilla luciferase vectors as we have previously described (17,18). […] Luciferase activity was assessed using the Dual Luciferase Reporter Assay System (Promega Corporation, Madison, Wis.) according to manufacturer's instructions after cells were treated for 48 hours."}, "Lewis rats [6]": {"system": "Lewis rats", "assay": "Rat posterolateral intertransverse process spinal fusion at L4-L5", "assay_type": "in vivo", "conditions": "for Fusion Rates, Manual Palpation / Fusion Rates, Micro-CT / Fusion Rates, X-ray: at sacrifice (8 weeks); for bilateral fusion on radiographs (animals): four weeks; for Fusion Mass Bone Volume / Fusion Mass Bone Volume to Tissue Volume / Fusion Mass Total Tissue Volume / Fusion Mass Trabecular Separation / trabecular thickness per footnote: micro-CT", "method": "Thirty-eight 8-week-old male Lewis rats were purchased from Charles River Laboratories (Wilmington, Mass.) and were maintained and housed at the UCLA vivarium in accordance with regulations set forth by the UCLA Office of Protection of Research Subjects. The study was performed under a protocol approved by the UCLA Animal Research Committee (ARC).\nAnimals were pre-medicated with sustained release buprenorphine thirty minutes prior to surgery and anesthetized with 2% isoflurane administered in oxygen (1 L/min). The surgical site was shaved and disinfected with Betadine and 70% ethanol. Posterolateral intertransverse process spinal fusion at L4-L5 was performed as in prior studies (21,22). The L6 vertebral body was identified using the iliac crest as a landmark. A 4-cm longitudinal midline incision was made through the skin and subcutaneous tissue over L4-L5 down to the lumbodorsal fascia. A 2-cm longitudinal paramedial incision was then made in the paraspinal muscles bilaterally to expose the transverse processes of L4-L5, which were decorticated with a high-speed burr. […] The implants were then covered with the overlying paraspinal muscles and the lumbodorsal fascia and skin were closed with 4-0 Prolene sutures (Ethicon, Inc., Somerville, N.J.). Animals were allowed to ambulate, eat, and drink ad libitum immediately after surgery.\nPosteroanterior radiographs of the lumbar spine were taken on each animal at 4, 6, and 8 weeks after surgery using a Faxitron LX60 cabinet radiography system and evaluated blindly by two independent observers employing the following standardized scale: 0, no fusion; 1, unilateral fusion; and 2, complete bilateral fusion. The scores from the observers were added together and only a score of 4 was considered as complete fusion.\nEight weeks after surgery, animals were euthanized and the spines were surgically removed and evaluated by two blinded independent observers for motion between levels. Nonunion was recorded if motion was observed between the facets or transverse processes on either side. Complete fusion was recorded if no motion was observed bilaterally. Spines were scored as either fused or not fused. Unanimous agreement was required to consider complete fusion.\nEach removed spine was analyzed by high resolution micro-computed tomography (micro-CT), using a SkyScan 1172 scanner (SkyScan, Belgium) with a voxel isotropic resolution of 20 μm and an X-ray energy of 55 kVp and […] to further assess the fusion rate and observe the fusion mass as we have previously reported (15). Three hundred and sixty projections were acquired over an angular range of 180° with steps of 0.5 with an exposure time of 220 msec/slice. Five frames were averaged at each rotation step to get better signal to noise ratio. A 0.5 mm aluminum filter was used to narrow down the X-ray beam frequency in order to minimize beam hardening artifact. Virtual image slices were reconstructed using the cone-beam reconstruction software version 2.6 based on the Feldkamp algorithm (SkyScan). These settings produced serial cross-sectional 1024×1024 pixel images. Sample re-orientation and 2D visualization were performed using DataViewer (SkyScan). 3D visualization was performed using Dolphin Imaging version 11 (Dolphin Imaging & Management Solutions, Chatsworth, Calif.). Fusion was defined as the bilateral presence of bridging bone between the L4 and L5 transverse processes. The reconstructed images were judged to be fused or not fused by two experienced independent observers. To quantify the density of bone formed within each fusion mass, the tissue volume of the mass (TV), trabecular bone volume within the mass (BV), BV/TV ratio, trabecular thickness, and trabecular separation were calculated. This was performed using DataViewer software with measurements across 501 axial slices (20 um per slice, 10.02 mm length) within each fusion mass, centered at the level of the intervertebral body of L4-5."}, "Smoothened (YFP-Smo)": {"molecular_target": "T1, Smoothened (YFP-Smo) (Mus musculus, UniProt P56726)", "T1 construct": "expressed in transfected cells", "T1 sequence (P56726 33-793)": "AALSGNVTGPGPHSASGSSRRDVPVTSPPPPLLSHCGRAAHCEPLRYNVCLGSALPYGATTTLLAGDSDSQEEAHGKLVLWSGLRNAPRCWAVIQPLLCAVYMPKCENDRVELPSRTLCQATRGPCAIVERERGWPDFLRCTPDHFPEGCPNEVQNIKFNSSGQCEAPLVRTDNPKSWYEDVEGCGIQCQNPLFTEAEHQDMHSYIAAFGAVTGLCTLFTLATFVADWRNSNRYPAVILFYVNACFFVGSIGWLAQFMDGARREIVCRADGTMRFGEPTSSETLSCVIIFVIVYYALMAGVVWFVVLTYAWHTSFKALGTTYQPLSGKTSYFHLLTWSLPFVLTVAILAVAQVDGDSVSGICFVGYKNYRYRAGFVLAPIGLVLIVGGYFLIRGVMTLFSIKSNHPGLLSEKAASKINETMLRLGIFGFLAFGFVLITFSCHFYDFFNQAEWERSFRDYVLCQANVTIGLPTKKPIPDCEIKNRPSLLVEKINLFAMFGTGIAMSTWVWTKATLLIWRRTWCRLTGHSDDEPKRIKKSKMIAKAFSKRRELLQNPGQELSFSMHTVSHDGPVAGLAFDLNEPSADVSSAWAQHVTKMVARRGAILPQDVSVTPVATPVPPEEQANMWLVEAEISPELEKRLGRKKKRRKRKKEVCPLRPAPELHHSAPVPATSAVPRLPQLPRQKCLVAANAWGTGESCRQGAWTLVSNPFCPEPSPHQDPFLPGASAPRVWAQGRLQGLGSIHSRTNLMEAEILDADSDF", "assay": "YFP-Smo capture by 20S-beads, competition with free sterol", "assay_type": "binding", "conditions": "50 μM free competitor sterol, Western blot, semi-quantitative", "method": "as §4\nWe previously reported that 20S selectively activates Hh signaling by binding to the Smo receptor (19). To determine whether Oxy133 activates Hh signaling by the same mechanism, we tested the ability of Oxy133 to compete for YFP-tagged Smo (YFP-Smo) binding with a 20S analogue coupled to magnetic beads. As we previously reported, this analogue, nat-20S-yne, contains an alkyne moiety on the iso-octyl chain, allowing for click chemistry-mediated coupling to magnetic beads (20S-beads) (19). Using these beads for sterol-binding assays, the amount of YFP-Smo remaining on the beads relative to a no-competitor sample is measured by Western blotting. […]"}},
  "note": "Where two headings read alike, the source gives them in different places.",
  "data": [
    {"smiles": "CC1=C2C[C@H]3[C@@H](CC=C4C[C@@H](O)CC[C@@]43C)[C@@H]2CC[C@]12O[C@@H]1C[C@H](C)CN[C@H]1[C@H]2C", "note": "[Cyclopamine, reference compound]", "values": [
      {"measurement": "inhibition of Oxy133-induced ALP activity", "setting": "[1]; 4 μM cyclopamine", "result": "completely inhibited"},
      {"measurement": "inhibition of Oxy133-induced ALP activity and osteogenic marker expression", "setting": "[2]; M2 cells (data not shown)", "result": "completely inhibited"}
    ]},
    {"smiles": "CC(C)CCCC(C)(O)C1CCC2C3CC(O)C4CC(O)CCC4(C)C3CCC21C", "note": "(stereo not shown) [Oxy34]", "values": [
      {"measurement": "EC50", "setting": "[1]", "result": 800, "unit": "nM"},
      {"measurement": "fusion at the 4 week time point", "setting": "Lewis rats [3]", "result": "no fusion was observed"}
    ]},
    {"smiles": "C=C(C)CCC[C@](C)(O)[C@H]1CC[C@H]2[C@@H]3C[C@H](O)[C@H]4C[C@@H](O)CC[C@]4(C)[C@H]3CC[C@@]21C", "note": "[Oxy49]", "values": [
      {"measurement": "EC50", "setting": "[1]", "result": 900, "unit": "nM"},
      {"measurement": "fusion at the 4 week time point", "setting": "Lewis rats [3]", "result": "no fusion was observed"}
    ]},
    {"smiles": "CCCCCC[C@](C)(O)[C@H]1CC[C@H]2[C@@H]3C[C@H](O)[C@H]4C[C@@H](O)CC[C@]4(C)[C@H]3CC[C@@]21C", "note": "[Oxy133, (3S,5S,6S,8R,9S,10R,13S,14S,17S)-17-((S)-2-hydroxyoctan-2-yl)-10,13-dimethylhexadecahydro-1H-cyclopenta[a]phenanthrene-3,6-diol]", "values": [
      {"measurement": "BSP expression increase", "setting": "[4]; 2 and 4 weeks", "result": 4, "unit": "fold"},
      {"measurement": "OCN expression induction", "setting": "[4]; 4 weeks", "result": 2, "unit": "fold"},
      {"measurement": "OSX expression induction", "setting": "[4]; 4 weeks", "result": 3, "unit": "fold"},
      {"measurement": "BSP expression increase", "setting": "[4]; one week", "result": 2, "unit": "fold"},
      {"measurement": "Gli-dependent reporter activity induction", "setting": "[5]; 100 nM", "result": 5, "unit": "fold"},
      {"measurement": "Gli-dependent reporter activity induction", "setting": "[5]; 1 μM", "result": 17, "unit": "fold"},
      {"measurement": "EC50", "setting": "[1]; Mus musculus, 96 h", "result": "~500", "unit": "nM"},
      {"measurement": "Fusion Rates, Manual Palpation", "setting": "Lewis rats [6]; 0.2 mg", "result": 0, "unit": "%"},
      {"measurement": "Fusion Rates, Micro-CT", "setting": "Lewis rats [6]; 0.2 mg", "result": 0, "unit": "%"},
      {"measurement": "Fusion Rates, X-ray", "setting": "Lewis rats [6]; 0.2 mg", "result": 0, "unit": "%"},
      {"measurement": "bilateral fusion, manual palpation (animals)", "setting": "Lewis rats [6]; 2 mg, 8 weeks", "result": "4/8"},
      {"measurement": "bilateral fusion, micro-CT (animals)", "setting": "Lewis rats [6]; 2 mg, 8 weeks", "result": "4/8"},
      {"measurement": "Fusion Rates, Manual Palpation", "setting": "Lewis rats [6]; 2 mg", "result": 50, "unit": "%"},
      {"measurement": "Fusion Rates, Micro-CT", "setting": "Lewis rats [6]; 2 mg", "result": 50, "unit": "%"},
      {"measurement": "Fusion Rates, X-ray", "setting": "Lewis rats [6]; 2 mg", "result": 50, "unit": "%"},
      {"measurement": "fusion on radiographs (animals)", "setting": "Lewis rats [6]; 2 mg, eight weeks", "result": "4/8"},
      {"measurement": "bilateral fusion on radiographs (animals)", "setting": "Lewis rats [6]; 2 mg", "result": "3/8"},
      {"measurement": "Fusion Mass Bone Volume", "setting": "Lewis rats [6]; 2 mg, 8 weeks", "result": 21.217, "unit": "mm^3"},
      {"measurement": "Fusion Mass Bone Volume to Tissue Volume", "setting": "Lewis rats [6]; 2 mg, 8 weeks", "result": 27.104, "unit": "%"},
      {"measurement": "Fusion Mass Total Tissue Volume", "setting": "Lewis rats [6]; 2 mg, 8 weeks", "result": 78.586, "unit": "mm^3"},
      {"measurement": "Fusion Mass Trabecular Separation", "setting": "Lewis rats [6]; 2 mg, 8 weeks", "result": 321.693, "unit": "μm"},
      {"measurement": "trabecular thickness per footnote", "setting": "Lewis rats [6]; 2 mg, 8 weeks", "result": 134.008},
      {"measurement": "bilateral fusion, manual assessment (animals)", "setting": "Lewis rats [6]; 20 mg, 8 weeks", "result": "6/7"},
      {"measurement": "Fusion Rates, Manual Palpation", "setting": "Lewis rats [6]; 20 mg", "result": 86, "unit": "%"},
      {"measurement": "Fusion Rates, Micro-CT", "setting": "Lewis rats [6]; 20 mg", "result": 100, "unit": "%"},
      {"measurement": "Fusion Rates, X-ray", "setting": "Lewis rats [6]; 20 mg", "result": 100, "unit": "%"},
      {"measurement": "bilateral fusion on radiographs (animals)", "setting": "Lewis rats [6]; 20 mg", "result": "6/7"},
      {"measurement": "Fusion Mass Bone Volume", "setting": "Lewis rats [6]; 20 mg, 8 weeks", "result": 19.592, "unit": "mm^3"},
      {"measurement": "Fusion Mass Bone Volume to Tissue Volume", "setting": "Lewis rats [6]; 20 mg, 8 weeks", "result": 24.565, "unit": "%"},
      {"measurement": "Fusion Mass Total Tissue Volume", "setting": "Lewis rats [6]; 20 mg, 8 weeks", "result": 79.934, "unit": "mm^3"},
      {"measurement": "Fusion Mass Trabecular Separation", "setting": "Lewis rats [6]; 20 mg, 8 weeks", "result": 310.912, "unit": "μm"},
      {"measurement": "trabecular thickness per footnote", "setting": "Lewis rats [6]; 20 mg, 8 weeks", "result": 124.737},
      {"measurement": "EC50", "setting": "[2]; Mus musculus, M210B4, 96 h, read-out: EC50 for inducing ALP activity", "result": "~440", "unit": "nM"}
    ]},
    {"smiles": "CC(C)CCC[C@](C)(O)[C@H]1CC[C@H]2[C@@H]3CC=C4C[C@@H](O)CC[C@]4(C)[C@H]3CC[C@@]21C", "note": "[Oxy 20S, 20(S)-hydroxycholesterol]", "values": [
      {"measurement": "amount of YFP-Smo captured on 20S-coupled beads", "setting": "Smoothened (YFP-Smo)", "result": "reduced the amount of YFP-Smo captured"}
    ]}
  ]
}
